These results are taken from US20080108641A1, “Compounds for treating inflammatory disorders, demyelinating disdorders and cancers” (priority 2006, published 2008).

The target in data set [1] is T1, FLT3 (Homo sapiens, UniProt P36888).
T1 construct: purchased Invitrogen, Inc. (SelectScreen platform)
T1 sequence (P36888 27-993): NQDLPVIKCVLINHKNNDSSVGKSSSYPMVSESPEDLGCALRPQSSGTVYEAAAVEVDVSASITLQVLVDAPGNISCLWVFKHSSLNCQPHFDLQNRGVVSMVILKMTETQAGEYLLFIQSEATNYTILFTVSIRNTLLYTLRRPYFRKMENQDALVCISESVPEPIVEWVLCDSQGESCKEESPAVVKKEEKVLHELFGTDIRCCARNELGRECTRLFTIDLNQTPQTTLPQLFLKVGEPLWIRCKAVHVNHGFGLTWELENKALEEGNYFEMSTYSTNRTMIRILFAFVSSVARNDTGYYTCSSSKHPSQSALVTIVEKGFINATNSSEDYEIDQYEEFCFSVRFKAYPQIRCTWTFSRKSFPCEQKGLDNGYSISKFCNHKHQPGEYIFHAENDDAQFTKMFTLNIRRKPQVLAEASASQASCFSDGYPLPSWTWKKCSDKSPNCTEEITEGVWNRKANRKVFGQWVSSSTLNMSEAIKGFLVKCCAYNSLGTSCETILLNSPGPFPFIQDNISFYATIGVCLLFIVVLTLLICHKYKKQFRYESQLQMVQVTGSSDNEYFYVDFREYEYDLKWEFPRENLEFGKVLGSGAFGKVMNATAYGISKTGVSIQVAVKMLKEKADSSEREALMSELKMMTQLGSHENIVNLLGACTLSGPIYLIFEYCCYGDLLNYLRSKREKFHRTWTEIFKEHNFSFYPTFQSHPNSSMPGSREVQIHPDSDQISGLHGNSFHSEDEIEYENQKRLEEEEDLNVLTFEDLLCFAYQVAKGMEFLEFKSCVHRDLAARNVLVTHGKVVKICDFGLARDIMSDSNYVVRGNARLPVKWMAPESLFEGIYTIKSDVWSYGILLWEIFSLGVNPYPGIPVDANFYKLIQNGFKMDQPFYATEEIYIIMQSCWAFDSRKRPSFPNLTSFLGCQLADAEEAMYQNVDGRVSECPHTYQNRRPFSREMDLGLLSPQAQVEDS
Briefly: SelectScreen kinase assay against FLT3. Type of data set: biochemical. Particulars: ATP at 100 micromolar; for inhibition at 1 µM: 1000 nMolar, read-out: E1000 (percent inhibition at 1000 nMolar). How it is done:
The terms “IC50” and “EC50” are used interchangeably. As used herein, “EC50” refers to nMolar concentration at median percent inhibition determined by dose respose (DR) assay. As used herein, the term “E1000” refers to percent inhibition at 1000 nMolar determined by assay. EC50 was calculated based on dose response curve was fitted to 4 parameter Hill equation.
Testing of the compounds described in this invention was carried out using the SelectScreen™ platform from Invitrogen, Inc. (Carlsbad, Calif., USA) and the details of its performance are readily viewed via the web by linking to: http://www.invitrogen.com/downloads/SelectScrn_Brochure.pdf.
Briefly the approach is based on treating each specific kinase with a unique substrate and optical reporter system in the presence of ATP at 100 micromolar. In controls, the substrate is phosphorylated and a baseline optimal response is recorded.
The compounds were then re-tested by adding graded amounts of putative inhibitor which were added in 5 separate increments to generate a dose response curve. The latter is obtained by fitting to a 4 parameter Hill equation, a sigmoid saturation equation.
For the compounds of this invention, the experimental condition were as follows. The 2×FLT3/Tyr 02 peptide mixture was prepared in 50 mM HEPES pH 7.5, 0.01 BRIJ-35, 10 mM MgCl2, 1 mM EGTA. The final 10 uL kinase reaction consists of 0.6-76.0 ng FLT3 and 2 uM Tyr 02 peptide in 50 mM HEPES pH 7.5, 0.01% BRIJ-35, […], 1 mM EGTA. After 1 hour kinase reaction incubation, 5 uL of a 1:64 dilution of development reagent A was added.
EC50 and E1000 values for selected compounds of formula (IB) were measured according to the protocol described above in Example 9.

The test system of data set [2] is arthritis induced by monoclonal antibodies raised against type II collagen, plus LPS. The following applies: Lange et al., 2005; cited from earlier work.
In data set [3] the test system is IL-4. As to the kind of experiment: Mediator release, IL-4 (Con A-stimulated PBML, sandwich ELISA). Particulars: Homo sapiens, read-out: % Growth Inhibition. The class given is cell-based. The method, then:
(§1) In this experiment, test compound and/or vehicle were preincubated with human peripheral blood mononuclear leukocyte (PBML, 1×10^6/ml) in RPMI buffer pH 7.4 for 2 hours. Concanavalin A (Con A, 20 μg/ml) was then added to stimulate the cells overnight in 5% CO2 at 37° C. IL-4 and IL-10 cytokine levels in the conditioned medium were then quantified using a sandwich ELISA kit. Compounds were screened at 10, 1, 0.1, 0.01 and 0.001 μM.
In general terms: An ELISA detects its analyte on a solid surface through an enzyme-linked reagent.

Data set [4] has as its system IL-10. Briefly: Mediator release, IL-10 (Con A-stimulated PBML, sandwich ELISA). Type of data set: cell-based. The following applies: Homo sapiens, read-out: % inhibition of IL-10 release, read-out: % Growth Inhibition. The method, then: as §1
The test system of data set [5] is B-lymphocyte cells isolated from the spleen. Briefly: Cell proliferation, B-Cell + LPS ([3H]thymidine incorporation). Particulars: Mus musculus, read-out: % Growth Inhibition. The class given is cell-based, balb/c mice. The method, then: B-lymphocyte cells isolated from the spleen of balb/c mice weighing 17±1 g were used. Test compound and/or vehicle were incubated with the cells (1.5×10^6/ml) in the presence of 10 μg/ml lipopolysaccharide (LPS) in AIM-V medium pH 7.4 at 37° C. for 24 hours. [^3H]Thymidine (120 nM) was then added for an additional overnight incubation period. Thymidine incorporation was assessed by liquid scintillation counting.
(§2) Test compound-induced suppression of cell proliferation by 50 percent or more (≧50%) relative to vehicle control response indicates significant inhibitory activity.
(Dividing cells build labelled thymidine or BrdU into new DNA.)

Data set [6] concerns T-lymphocyte cells isolated from thymus. As to the kind of experiment: Cell proliferation, T-Cell + Con A ([3H]thymidine incorporation). The class given is cell-based, balb/c mice. The following applies: Mus musculus. The method, then:
T-lymphocyte cells isolated from thymus of balb/c mice weighing 17±1 g were used. Test compound and/or vehicle is incubated with the cells (4×10^6/ml) in the presence of 3 μg/mL Concanavalin A (Con A) in AIM-V medium pH 7.4 at 37° C. for 24 hours. [^3H]Thymidine (120 nM) was then added for an additional overnight incubation period. Thymidine incorporation was assessed by liquid scintillation counting. Compounds were screened at 10, 1, 0.1, 0.01 and 0.001 μM.
as §2

The test system of data set [7] is Experimental Autoimmune Encephalomyelitis (EAE). As to the kind of experiment: Acute stage Experimental Autoimmune Encephalomyelitis (EAE) model, daily dosing. How it is done: Accordingly, three randomized cohorts of guinea pigs with EAE induced by the method of Example 2, were treated, respectively, with 6 mg/kg of Symadex™ (full salt hydrate) and 0.35 mg/kg of mitoxantrone. Animals were treated daily, by intraperitoneal injection, for 15 days, starting on day 7 post immunization. Controls were treated with vehicle. We reasoned that 15 consecutive, 6 mg/kg doses of Symadex™ would represent a level of drug exposure that would be commensurate with the “20 mg/kg every 72 hours” regimen in Example 4 and consistent with a mid level exposure between the 20 mg/kg and the 40 mg/kg schedule given weekly, in Example 2. The mitoxantrone dose was selected to reflect a typical high dose given to rats or mice by daily dosing in the prior art, but allometrically scaled to the guinea pig.

Usually inhibition stands for the change of the read-out against control, counted positive when it falls. Broadly, the EC50 is the concentration that produces a half-maximal response. Low values mean a more potent agent, high ones a less potent agent. In general, IC50 refers to the concentration that gives 50% inhibition.

Where two headings read alike, the source gives them in different places.

Regarding `CN(C)CCCCCNc1ccc2ncn3c4ccc5[nH]ncc5c4c(=O)c1c23` [(IIIA)], in data set [1] (indazoles), the inhibition at 1 µM came out at 96% and the midpoint of the response, the EC50, lay at 16 nM.
In the case of `CN(C)CCCNc1ccc2ncn3c4ccc5[nH]ncc5c4c(=O)c1c23` [(IVA)], the EC50 in data set [1] (indazoles) worked out at 9 nM. In other words, the single-digit nanomolar range.
In the case of `CN(C)CCNc1ccc2ncn3c4ccc(OC(=O)OC(C)(C)C)cc4c(=O)c1c23` [(VB)], in data set [1] (esters of formula (IB)), the inhibition at 1 µM was found to be 92% and a half-maximal effect (EC50) was put at 96 nM.
As for `O=c1c2c(NCCN3CCOCC3)ccc3ncn(c4ccc5[nH]ncc5c14)c32` [Compound (VA)], in data set [1] (indazoles), the inhibition at 1 µM stood at 87% and the EC50 worked out at 32 nM.
For the compound `CCN(CC)CCNc1ccc2ncn3c4ccc(OC(C)=O)cc4c(=O)c1c23` [Compound (VIB), Acetic acid 5-(2-diethylamino-ethylamino)-6-oxo-6H-2,10b-diaza-aceanthrylen-8-yl ester], in data set [1] (esters of formula (IB)), the inhibition at 1 µM stood at 64% and the EC50 was 471 nM.
With `CN(Cc1cnc2nc(N)nc(N)c2n1)c1ccc(C(=O)N[C@@H](CCC(=O)O)C(=O)O)cc1` [Methotrexate], the “benefit in antibody induced arthritis models” value in data set [2] is reported as “diminishing benefit”.
With `O=C1c2c(O)ccc(O)c2C(=O)c2c(NCCNCCO)ccc(NCCNCCO)c21` [Mitoxantrone, reference compound], the inhibition at 0.001 µM in data set [3] (1 nM) is 11%; in data set [4] (1 nM), 2%; in data set [5] (1 nM), 18%; in data set [6] (1 nM, read-out: % Growth Inhibition), -1%. Also, the inhibition at 0.01 µM in data set [3] (10 nM) came to 13%; in data set [4] (10 nM), 1%; in data set [5] (10 nM), 54%; in data set [6] (10 nM, read-out: % Growth Inhibition), 19%. Moreover, the inhibition at 0.1 µM in data set [3] (0.1 μM) was determined as 18%; in data set [4] (0.1 μM), 5%; in data set [5] (0.1 μM), 93%; in data set [6] (0.1 μM, read-out: % Growth Inhibition), 80%. Moreover, the inhibition at 1 µM in data set [3] (1 μM) was -4%; in data set [4] (1 μM), 60%; in data set [5] (1 μM), 102%; in data set [6] (1 μM, read-out: % Growth Inhibition), 103%. The inhibition at 10 µM in data set [3] (10 μM) was found to be 108%; in data set [4] (10 μM), 102%; in data set [5] (10 μM), 102%; in data set [6] (10 μM, read-out: % Growth Inhibition) it was 103%. In addition, the IC50 in data set [6] (T-Cell + Con A proliferation, read-out: IC50) was determined as 32 nM. Further, the “clinical score course (neurological impairment)” value in data set [7] (daily i.p. for 15 days from day 7 post immunization, Symadex 6 mg/kg, mitoxantrone 0.35 mg/kg) is recorded as “initial rise in neurological impairment is arrested”. The “statistical significance of therapeutic effect on clinical score vs control (Mann-Whitney rank-sum)” value in data set [7] (daily i.p. for 15 days, Symadex 6 mg/kg (p below 0.05), mitoxantrone 0.35 mg/kg) is reported as “did not reach statistical significance”. Also, in data set [7] (daily i.p. for 15 days, Symadex 6 mg/kg, mitoxantrone 0.35 mg/kg, Symadex vs mitoxantrone p 0.034), the weight gain profile result is recorded as “impairs weight gain”. In addition, in data set [7] (necropsy after 15 daily doses), the “pathology score: meningeal inflammation (M) vs control” value is reported as “statistically significant reduction”. Further, the “pathology scores: perivascular cuffing (P), myelitis (E) and demyelination (D) vs control” value in data set [7] (necropsy after 15 daily doses, p value<0.05 from control) is “reducing the perivascular cuffing (P), myelitis (E) and demyelination (D)”.
